# According to patent US9555038B2, “Heterocycle-substituted tetracyclic compounds and methods of use thereof for the treatment of viral diseases” (Merck Sharp & Dohme Corp., priority 2013, dated 2017):
# Where two headings read alike, the source gives them in different places.
# Assays:
# HCV replicon 1A = experiment: Cell-based HCV Replicon Assay A, replicon 1A
# Summary of the method: (§1)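 2000 cells/well; 10 serial dilutions, top concentration 333.3 nM to 1.667 nM; 0.5% DMSO, 5% FBS; 3 days; lysis; multiplex TaqMan RT-PCR (NS5B/Neo plus cyclophilin), RNA from linear Ct standard curves.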
# HCV replicon 1B = experiment: Cell-based HCV Replicon Assay B, replicon 1B
# Method: In an alternate assay (“Replicon Assay B”), 1000 cells were seeded per well in a 384-well collagen coated black plate from Greiner bio-one (Cat #781946) in 5% FBS. Inhibitors of this invention were added at 24 h post-seeding, and the plates were incubated for 3 days. Cells were subsequently lysed with Qiagen lysis buffer (Cat #1062731) to extract the RNA. HCV replicon RNA level was measured by real-time PCR using the RNA-to-CT kit from Applied Biosystem (Cat #4392656) and genotype-specific primers and probes. The amplicon was located within NS5B. The sequence of the PCR primers are as follows: 5B.2F, ATGGACAGGCGCCCTGA (SEQ. ID NO. 1); 5B.2R, […] (SEQ. ID NO. 2); the probe sequence was FAM-labeled CACGCCATGCGCTGCGG (SEQ. ID NO. 3). To detect genotype 1A the primer 1A F, TGCGGAACCGGTGAGTACA and 1A R, […] were used; the probe sequence was FAM-[…].
# The real-time RT-PCR reactions were run on ABI PRISM 7900HT or Viia7 Sequence Detection System using the following program: 48° C. for 30 minutes, 95° C. for 10 minutes, 40 cycles of 95° C. for 15 sec, 60° C. for 1 minutes. The 50% effective concentration (EC50) was the drug concentration necessary to achieve an increase in the cycle threshold (CT) of 1 over the projected baseline CT.
# Data was obtained for various compounds of the present invention using the methods described in the Example above, and is presented in the table immediately below. Data for replicons 1A, 1AY93H and 2B were obtained using Replicon Assay A and data for replicons 1AQ30D and 1B were obtained using Replicon Assay B.
# HCV replicon 2B = experiment: Cell-based HCV Replicon Assay A, replicon 2B
# Summary of the method: as §1
# HCV replicon 1AY93H = experiment: Cell-based HCV Replicon Assay A, replicon 1AY93H
# Summary of the method: as §1
# [1] = Hepatitis C virus, read-out: 2B IC50 (nM), replicon 2B
# [2] = Hepatitis C virus, read-out: 1A Y93H IC50 (nM), replicon 1AY93H
# [3] = read-out: 1A Y93H IC50, replicon 1AY93H
Structure (SMILES),IC50 (HCV replicon 1A; Hepatitis C virus) [pM],IC50 (HCV replicon 1B; Hepatitis C virus) [pM],IC50 (HCV replicon 2B; [1]) [nM],IC50 (HCV replicon 1AY93H; [2]) [nM],"IC50 (HCV replicon 2B; read-out: 2B IC50, replicon 2B) [nM]",IC50 (HCV replicon 1AY93H; [3]) [nM],IC50 (HCV replicon 1A) [pM],IC50 (HCV replicon 1B) [pM],"IC50 (HCV replicon 2B; replicon 2B, read-out: 2B IC50) [nM]","IC50 (HCV replicon 1AY93H; replicon 1AY93H, read-out: 1A Y93H IC50) [nM]"
"COC(=O)N[C@H](C(=O)N1CCC[C@H]1c1ncc(-c2cc(C)c3c(c2)OC(c2cnc(C4CCC4)s2)n2c-3cc3cc(-c4cnc([C@@H]5C[C@H]6C[C@H]6N5C(=O)[C@@H](NC(=O)OC)C(C)C)[nH]4)ccc32)[nH]1)C(C)C (single isomer, unassigned) [Compound 207]",3,5,0.25,0.26,,,,,,
"COC(=O)NC(C(=O)N1CCC[C@H]1c1ncc(-c2ccc3c(c2)cc2n3C(c3cnc(C4CCCC4)s3)Oc3cc(-c4cnc([C@@H]5CCCN5C(=O)[C@@H](NC(=O)OC)C(C)C)[nH]4)cc(F)c3-2)[nH]1)C1CCOC(C)(C)C1 (single isomer, unassigned) [Compound 111]",2.2,2,0.003,0.005,,,,,,
"COCc1ncc(C2Oc3cc(-c4cnc([C@@H]5CCCN5C(=O)[C@@H](NC(=O)OC)C(C)C)[nH]4)cc(F)c3-c3cc4cc(-c5cnc([C@@H]6CCCN6C(=O)[C@@H](NC(=O)OC)C(C)C)[nH]5)ccc4n32)s1 (single isomer, unassigned) [Compound 17]",1.2,2,,,0.528,1.01,,,,
"COC(=O)NC(C(=O)N1[C@@H]2C[C@@H]2C[C@H]1c1ncc(-c2ccc3c(c2)cc2n3C(c3cnc(C4CC4)s3)Oc3cc(-c4cnc([C@@H]5CCCN5C(=O)[C@@H](NC(=O)OC)C(C)C)[nH]4)cc(C)c3-2)[nH]1)C1C[C@@H](C)O[C@@H](C)C1 (single isomer, unassigned) [Compound 216]",2.4,4,,,0.086,0.292,,,,
"COC(=O)N[C@H](C(=O)N1CCC[C@H]1c1ncc(-c2cc(F)c3c(c2)OC(c2cnc(CC4CC4)s2)n2c-3cc3cc(-c4cnc([C@@H]5CCCN5C(=O)[C@@H](NC(=O)OC)C(C)C)[nH]4)ccc32)[nH]1)C(C)C (single isomer, unassigned) [Compound 509]",,,,,,,2,2.8,0.018,0.014
COC(=O)N[C@H](C(=O)N1CCC[C@H]1c1ncc(-c2cc(F)c3c(c2)OC(c2csnn2)n2c-3cc3cc(-c4cnc([C@@H]5CCCN5C(=O)[C@@H](NC(=O)OC)C(C)C)[nH]4)ccc32)[nH]1)C(C)C (mixture of isomers) [Compound 501],3.9,3.6,1.32,0.857,,,,,,
"COC(=O)NC(C(=O)N1CCC[C@H]1c1ncc(-c2ccc3c(c2)cc2n3C(c3cnc(C4(C)CC4)s3)Oc3cc(-c4cnc([C@@H]5CCCN5C(=O)[C@@H](NC(=O)OC)C(C)C)[nH]4)cc(F)c3-2)[nH]1)C1CCOC(C)(C)C1 (single isomer, unassigned) [Compound 460]",,,,,0.138,0.288,2.7,3.9,,
"COC(=O)NC(C(=O)N1CCC[C@H]1c1ncc(-c2ccc3c(c2)cc2n3C(c3sc(C(C)C)nc3C)Oc3cc(-c4cnc([C@@H]5CCCN5C(=O)[C@@H](NC(=O)OC)C(C)C)[nH]4)cc(F)c3-2)[nH]1)C1CCOC(C)(C)C1 (single isomer, unassigned) [Compound 435]",,,,,0.181,0.618,2.8,3.8,,
"COC(=O)N[C@H](C(=O)N1CCC[C@H]1c1ncc(-c2cc(F)c3c(c2)OC(c2csc(C4CC4)n2)n2c-3cc3cc(-c4cnc([C@@H]5CCCN5C(=O)[C@@H](NC(=O)OC)C(C)C)[nH]4)ccc32)[nH]1)C(C)C (single isomer, unassigned) [Compound 432]",1,1,,,4,2.6,,,,
"COC(=O)N[C@H](C(=O)N1CCC[C@H]1c1ncc(-c2cc(F)c3c(c2)OC(c2cnc(C4(C)CC4)s2)n2c-3cc3cc(-c4cnc([C@@H]5CCCN5C(=O)[C@@H](NC(=O)OC)C(C)C)[nH]4)ccc32)[nH]1)C(C)C (single isomer, unassigned) [Compound 512]",,,,,0.783,0.347,8.5,3.9,,
